According to PubChem BioAssay (NCI):
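Test compounds were applied to cells in 96-well plates for 48 hours at 5 doses. TGI is the concentration that stops growth completely.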

Experiments:
Test in all cases: inhibition of tumour cell growth, NCI panel, 48 h
SK-MEL-28 melanoma = test system: SK-MEL-28 melanoma
M14 melanoma = test system: M14 melanoma
K-562 leukemia = test system: K-562 leukemia
LOX IMVI melanoma = test system: LOX IMVI melanoma
SK-OV-3 ovarian = test system: SK-OV-3 ovarian
OVCAR-4 ovarian = test system: OVCAR-4 ovarian
SN12C renal = test system: SN12C renal
NCI-H522 lung = test system: NCI-H522 lung
MCF7 breast = test system: MCF7 breast
RXF 393 renal = test system: RXF 393 renal
IGROV1 ovarian = test system: IGROV1 ovarian

Fc1cc(-c2cc(-c3ccccc3)no2)c(Cl)cc1Cl
TGI (SK-MEL-28 melanoma): > 56.4 µM | TGI (M14 melanoma): > 54.7 µM | TGI (K-562 leukemia): > 56.4 µM | TGI (LOX IMVI melanoma): > 21.2 µM | TGI (SK-OV-3 ovarian): > 50.3 µM | TGI (OVCAR-4 ovarian): > 77.3 µM | TGI (SN12C renal): > 54.4 µM | TGI (NCI-H522 lung): > 34.5 µM | TGI (MCF7 breast): > 100 µM | TGI (RXF 393 renal): 16.6 µM | TGI (IGROV1 ovarian): > 50.8 µM

O=C(Oc1ccccn1)c1cc2cc(CCl)ccc2oc1=O
TGI (SK-MEL-28 melanoma): > 100 µM | TGI (M14 melanoma): > 100 µM | TGI (K-562 leukemia): > 100 µM | TGI (LOX IMVI melanoma): > 100 µM | TGI (SK-OV-3 ovarian): > 100 µM | TGI (OVCAR-4 ovarian): 55 µM | TGI (SN12C renal): 56.7 µM | TGI (NCI-H522 lung): 30.3 µM | TGI (MCF7 breast): > 100 µM | TGI (RXF 393 renal): 41.3 µM | TGI (IGROV1 ovarian): > 100 µM

COc1cc(C2c3cc4c(cc3OC3(OC)COC(=O)C23)OCO4)cc(OC)c1OC(C)=O (stereo not given)
TGI (SK-MEL-28 melanoma): > 100 µM | TGI (M14 melanoma): > 74.2 µM | TGI (K-562 leukemia): > 100 µM | TGI (LOX IMVI melanoma): > 82.2 µM | TGI (SK-OV-3 ovarian): > 100 µM | TGI (OVCAR-4 ovarian): > 100 µM | TGI (SN12C renal): > 100 µM | TGI (NCI-H522 lung): 2.43 µM | TGI (MCF7 breast): > 36.4 µM | TGI (RXF 393 renal): 7.49 µM | TGI (IGROV1 ovarian): > 100 µM

O=C(/C=C/c1cc2ccccc2o1)N1CCN(c2ccccn2)CC1
TGI (SK-MEL-28 melanoma): > 100 µM | TGI (M14 melanoma): > 100 µM | TGI (K-562 leukemia): > 100 µM | TGI (LOX IMVI melanoma): > 100 µM | TGI (SK-OV-3 ovarian): > 100 µM | TGI (OVCAR-4 ovarian): > 100 µM | TGI (SN12C renal): > 100 µM | TGI (NCI-H522 lung): > 100 µM | TGI (MCF7 breast): > 100 µM | TGI (RXF 393 renal): > 100 µM | TGI (IGROV1 ovarian): > 100 µM

O=c1[nH]nc(Cc2ccccc2)n1/N=C/c1ccccc1O
TGI (SK-MEL-28 melanoma): > 100 µM | TGI (M14 melanoma): > 100 µM | TGI (K-562 leukemia): > 100 µM | TGI (LOX IMVI melanoma): > 100 µM | TGI (SK-OV-3 ovarian): > 100 µM | TGI (OVCAR-4 ovarian): > 100 µM | TGI (SN12C renal): > 100 µM | TGI (NCI-H522 lung): > 100 µM | TGI (MCF7 breast): > 100 µM | TGI (RXF 393 renal): 53.5 µM | TGI (IGROV1 ovarian): > 100 µM

CC(CO)(CO)N1C(=O)C2C3C=CC(C3)C2C1=O (stereo not given)
TGI (SK-MEL-28 melanoma): > 100 µM | TGI (M14 melanoma): > 100 µM | TGI (K-562 leukemia): > 100 µM | TGI (LOX IMVI melanoma): > 100 µM | TGI (SK-OV-3 ovarian): > 100 µM | TGI (OVCAR-4 ovarian): > 100 µM | TGI (SN12C renal): > 100 µM | TGI (NCI-H522 lung): > 100 µM | TGI (MCF7 breast): > 100 µM | TGI (RXF 393 renal): > 100 µM | TGI (IGROV1 ovarian): > 100 µM

Cc1ccnc2[nH]c3ccccc3c(=O)c12
TGI (SK-MEL-28 melanoma): 47.5 µM | TGI (M14 melanoma): > 100 µM | TGI (K-562 leukemia): > 100 µM | TGI (LOX IMVI melanoma): > 100 µM | TGI (SK-OV-3 ovarian): > 100 µM | TGI (OVCAR-4 ovarian): > 100 µM | TGI (SN12C renal): 52.4 µM | TGI (NCI-H522 lung): 32.9 µM | TGI (MCF7 breast): > 100 µM | TGI (RXF 393 renal): 41.8 µM | TGI (IGROV1 ovarian): 49.5 µM

CC1OC(OC2C(O)COC(OC3C(C)OC(OC4C(OC(=O)[C@]56CCC(C)(C)C[C@@H]5C5=CCC7[C@@]8(C)C[C@H](O)[C@H](OC9OC(CO)C(O)C(O)C9O)[C@@](C)(CO)[C@@H]8CC[C@@]7(C)[C@]5(C)CC6)OCC(O)C4O)C(O)C3OC3OCC(O)(CO)C3O)C2O)C(O)C(O)C1O (stereo not given in full)
TGI (SK-MEL-28 melanoma): 13.6 µM | TGI (M14 melanoma): 10.4 µM | TGI (K-562 leukemia): > 75 µM | TGI (LOX IMVI melanoma): 43.2 µM | TGI (SK-OV-3 ovarian): 34.8 µM | TGI (OVCAR-4 ovarian): 37.2 µM | TGI (SN12C renal): 16.4 µM | TGI (NCI-H522 lung): 35.7 µM | TGI (MCF7 breast): > 67.9 µM | TGI (RXF 393 renal): 34.1 µM | TGI (IGROV1 ovarian): 31.1 µM

OC1C#CCSCC#C/C=C\1 (stereo not given)
TGI (SK-MEL-28 melanoma): > 100 µM | TGI (M14 melanoma): > 100 µM | TGI (K-562 leukemia): 75.9 µM | TGI (LOX IMVI melanoma): > 100 µM | TGI (SK-OV-3 ovarian): > 100 µM | TGI (OVCAR-4 ovarian): > 100 µM | TGI (SN12C renal): > 100 µM | TGI (NCI-H522 lung): 32.9 µM | TGI (MCF7 breast): > 100 µM | TGI (RXF 393 renal): 68.1 µM | TGI (IGROV1 ovarian): > 100 µM

CN(C)CCCC12CCCCC1=Nc1ccccc12 (stereo not given)
TGI (SK-MEL-28 melanoma): > 100 µM | TGI (M14 melanoma): > 100 µM | TGI (K-562 leukemia): > 100 µM | TGI (LOX IMVI melanoma): > 100 µM | TGI (SK-OV-3 ovarian): > 100 µM | TGI (OVCAR-4 ovarian): > 100 µM | TGI (SN12C renal): > 100 µM | TGI (NCI-H522 lung): > 100 µM | TGI (MCF7 breast): > 100 µM | TGI (RXF 393 renal): > 100 µM | TGI (IGROV1 ovarian): > 100 µM

CCOC(=O)CC[C@H](NC(=O)[C@H](N)Cc1ccc(N(CCCl)CCCl)cc1)C(=O)OCC
TGI (SK-MEL-28 melanoma): > 54.3 µM | TGI (M14 melanoma): 21.8 µM | TGI (K-562 leukemia): > 100 µM | TGI (LOX IMVI melanoma): 41.6 µM | TGI (SK-OV-3 ovarian): > 72.8 µM | TGI (OVCAR-4 ovarian): > 45.2 µM | TGI (SN12C renal): > 62.4 µM | TGI (NCI-H522 lung): 18.3 µM | TGI (MCF7 breast): > 87.3 µM | TGI (RXF 393 renal): 29.7 µM | TGI (IGROV1 ovarian): > 65.7 µM

CN=C(N=Nc1c(O)[nH]c2ccccc12)SCC(=O)c1ccc(Br)cc1
TGI (SK-MEL-28 melanoma): > 78.1 µM | TGI (M14 melanoma): 39.3 µM | TGI (K-562 leukemia): > 100 µM | TGI (LOX IMVI melanoma): > 47.7 µM | TGI (SK-OV-3 ovarian): 28.4 µM | TGI (OVCAR-4 ovarian): > 100 µM | TGI (SN12C renal): > 48.7 µM | TGI (NCI-H522 lung): > 56.7 µM | TGI (MCF7 breast): 20.4 µM | TGI (RXF 393 renal): 19.2 µM | TGI (IGROV1 ovarian): > 100 µM

N#CCCN(C(=O)Nc1ccccc1)[C@H]1CCCC[C@@H]1N(C(=O)Nc1ccccc1)c1ccccc1
TGI (SK-MEL-28 melanoma): > 100 µM | TGI (M14 melanoma): > 100 µM | TGI (K-562 leukemia): > 100 µM | TGI (LOX IMVI melanoma): > 100 µM | TGI (SK-OV-3 ovarian): > 100 µM | TGI (OVCAR-4 ovarian): > 100 µM | TGI (SN12C renal): > 100 µM | TGI (NCI-H522 lung): > 100 µM | TGI (MCF7 breast): > 100 µM | TGI (RXF 393 renal): > 100 µM | TGI (IGROV1 ovarian): > 100 µM

Nc1nc(N)c2c3c(cnc2n1)CC(c1ccccc1)CC3 (stereo not given)
TGI (SK-MEL-28 melanoma): > 100 µM | TGI (M14 melanoma): > 100 µM | TGI (K-562 leukemia): > 100 µM | TGI (LOX IMVI melanoma): 21.6 µM | TGI (SK-OV-3 ovarian): 63 µM | TGI (OVCAR-4 ovarian): 41.9 µM | TGI (SN12C renal): 53.3 µM | TGI (NCI-H522 lung): 35.9 µM | TGI (MCF7 breast): 30.4 µM | TGI (RXF 393 renal): 47.9 µM | TGI (IGROV1 ovarian): 21.7 µM

CSc1ncnc2c1ncn2CCC(=O)OC(C)(C)C
TGI (SK-MEL-28 melanoma): > 100 µM | TGI (M14 melanoma): > 100 µM | TGI (K-562 leukemia): > 100 µM | TGI (LOX IMVI melanoma): > 100 µM | TGI (SK-OV-3 ovarian): > 100 µM | TGI (OVCAR-4 ovarian): > 100 µM | TGI (SN12C renal): > 100 µM | TGI (NCI-H522 lung): > 100 µM | TGI (MCF7 breast): > 100 µM | TGI (RXF 393 renal): > 100 µM | TGI (IGROV1 ovarian): > 100 µM

CCC(C)OC(=O)/C(Br)=C1/OC(=O)c2ccccc2-c2ccccc21 (stereo not given)
TGI (SK-MEL-28 melanoma): 86.7 µM | TGI (M14 melanoma): > 100 µM | TGI (K-562 leukemia): 40.6 µM | TGI (LOX IMVI melanoma): 68.2 µM | TGI (SK-OV-3 ovarian): > 100 µM | TGI (OVCAR-4 ovarian): > 100 µM | TGI (SN12C renal): > 100 µM | TGI (NCI-H522 lung): 44.3 µM | TGI (MCF7 breast): > 100 µM | TGI (RXF 393 renal): 21.5 µM
